Measured values taken from PubChem BioAssay (NCI).
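Step 1: Grow cells in 96-well plates. Step 2: Expose to compound for 48 hours at 5 concentrations. Step 3: Interpolate endpoints linearly; if unreached, use highest concentration. Definition used: TGI = concentration required for complete inhibition of growth.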

How the values were obtained:
Test in all cases: NCI anticancer screen, dose series, 48 h
786-0 renal = test system: 786-0 renal
A498 renal = test system: A498 renal
A549 NSCLC = test system: A549 NSCLC
ACHN renal = test system: ACHN renal
BT-549 breast = test system: BT-549 breast
CAKI-1 renal = test system: CAKI-1 renal
COLO 205 colon = test system: COLO 205 colon
DU-145 prostate = test system: DU-145 prostate
EKVX NSCLC = test system: EKVX NSCLC
HCT-116 colon = test system: HCT-116 colon
HCT-15 colon = test system: HCT-15 colon
HOP-62 NSCLC = test system: HOP-62 NSCLC
HOP-92 NSCLC = test system: HOP-92 NSCLC
HS 578T breast = test system: HS 578T breast
HT29 colon = test system: HT29 colon
IGROV1 ovarian = test system: IGROV1 ovarian
K-562 leukemia = test system: K-562 leukemia
KM12 colon = test system: KM12 colon
LOX IMVI melanoma = test system: LOX IMVI melanoma
M14 melanoma = test system: M14 melanoma
MALME-3M melanoma = test system: MALME-3M melanoma
MCF7 breast = test system: MCF7 breast
MDA-MB-231 breast = test system: MDA-MB-231 breast
MDA-MB-435 = test system: MDA-MB-435
MDA-N = test system: MDA-N
MOLT-4 leukemia = test system: MOLT-4 leukemia
NCI-H226 lung = test system: NCI-H226 lung
NCI-H23 lung = test system: NCI-H23 lung
NCI-H522 lung = test system: NCI-H522 lung
NCI/ADR-RES ovarian = test system: NCI/ADR-RES ovarian
OVCAR-3 ovarian = test system: OVCAR-3 ovarian
OVCAR-4 ovarian = test system: OVCAR-4 ovarian
OVCAR-5 ovarian = test system: OVCAR-5 ovarian
OVCAR-8 ovarian = test system: OVCAR-8 ovarian
PC-3 prostate = test system: PC-3 prostate
RPMI-8226 leukemia = test system: RPMI-8226 leukemia
RXF 393 renal = test system: RXF 393 renal
SF-268 CNS = test system: SF-268 CNS
SF-295 CNS = test system: SF-295 CNS
SK-MEL-2 melanoma = test system: SK-MEL-2 melanoma
SK-MEL-28 melanoma = test system: SK-MEL-28 melanoma
SK-MEL-5 melanoma = test system: SK-MEL-5 melanoma
SK-OV-3 ovarian = test system: SK-OV-3 ovarian
SN12C renal = test system: SN12C renal
SNB-19 CNS = test system: SNB-19 CNS
SNB-75 CNS = test system: SNB-75 CNS
SR leukemia = test system: SR leukemia
SW-620 colon = test system: SW-620 colon
T-47D breast = test system: T-47D breast
TK-10 renal = test system: TK-10 renal
U251 CNS = test system: U251 CNS
UACC-257 melanoma = test system: UACC-257 melanoma
UACC-62 melanoma = test system: UACC-62 melanoma
UO-31 renal = test system: UO-31 renal
CCRF-CEM leukemia = test system: CCRF-CEM leukemia
HL-60(TB) leukemia = test system: HL-60(TB) leukemia
NCI-H460 lung = test system: NCI-H460 lung
HCC-2998 colon = test system: HCC-2998 colon
SF-539 CNS = test system: SF-539 CNS

SMILES: Oc1c(Br)cc(Br)cc1CN(Cc1cc(Br)cc(Br)c1O)C1CCCCC1
- TGI (786-0 renal): > 100 µM
- TGI (A498 renal): 71.1 µM
- TGI (A549 NSCLC): > 100 µM
- TGI (ACHN renal): > 100 µM
- TGI (BT-549 breast): 90.9 µM
- TGI (CAKI-1 renal): > 100 µM
- TGI (COLO 205 colon): 29.2 µM
- TGI (DU-145 prostate): > 100 µM
- TGI (EKVX NSCLC): 92.5 µM
- TGI (HCT-116 colon): > 100 µM
- TGI (HCT-15 colon): > 100 µM
- TGI (HOP-62 NSCLC): 97.5 µM
- TGI (HOP-92 NSCLC): > 100 µM
- TGI (HS 578T breast): 53 µM
- TGI (HT29 colon): 64.8 µM
- TGI (IGROV1 ovarian): > 100 µM
- TGI (K-562 leukemia): > 100 µM
- TGI (KM12 colon): > 100 µM
- TGI (LOX IMVI melanoma): > 100 µM
- TGI (M14 melanoma): > 100 µM
- TGI (MALME-3M melanoma): 59.8 µM
- TGI (MCF7 breast): 65 µM
- TGI (MDA-MB-231 breast): 72.4 µM
- TGI (MDA-MB-435): > 100 µM
- TGI (MDA-N): > 100 µM
- TGI (MOLT-4 leukemia): > 100 µM
- TGI (NCI-H226 lung): > 100 µM
- TGI (NCI-H23 lung): 70.4 µM
- TGI (NCI-H522 lung): 36.5 µM
- TGI (NCI/ADR-RES ovarian): > 100 µM
- TGI (OVCAR-3 ovarian): 53.8 µM
- TGI (OVCAR-4 ovarian): > 100 µM
- TGI (OVCAR-5 ovarian): > 100 µM
- TGI (OVCAR-8 ovarian): > 100 µM
- TGI (PC-3 prostate): 50.5 µM
- TGI (RPMI-8226 leukemia): > 100 µM
- TGI (RXF 393 renal): > 100 µM
- TGI (SF-268 CNS): 71.9 µM
- TGI (SF-295 CNS): 72.7 µM
- TGI (SK-MEL-2 melanoma): 45.4 µM
- TGI (SK-MEL-28 melanoma): > 100 µM
- TGI (SK-MEL-5 melanoma): 34.6 µM
- TGI (SK-OV-3 ovarian): > 100 µM
- TGI (SN12C renal): > 100 µM
- TGI (SNB-19 CNS): > 100 µM
- TGI (SNB-75 CNS): 71.5 µM
- TGI (SR leukemia): > 100 µM
- TGI (SW-620 colon): > 100 µM
- TGI (T-47D breast): > 100 µM
- TGI (TK-10 renal): 61 µM
- TGI (U251 CNS): 74.9 µM
- TGI (UACC-257 melanoma): 45.1 µM
- TGI (UACC-62 melanoma): > 100 µM
- TGI (UO-31 renal): > 100 µM

SMILES: COc1ccc(C2Oc3c(cccc3OC)C=C2[N+](=O)[O-])cc1OC (stereo not drawn)
- TGI (786-0 renal): 19.7 µM
- TGI (A549 NSCLC): > 100 µM
- TGI (ACHN renal): 29.3 µM
- TGI (BT-549 breast): 31 µM
- TGI (CAKI-1 renal): 38.3 µM
- TGI (CCRF-CEM leukemia): > 100 µM
- TGI (COLO 205 colon): 73.7 µM
- TGI (DU-145 prostate): > 100 µM
- TGI (EKVX NSCLC): > 100 µM
- TGI (HCT-116 colon): 17.4 µM
- TGI (HCT-15 colon): 24 µM
- TGI (HL-60(TB) leukemia): > 100 µM
- TGI (HOP-62 NSCLC): > 100 µM
- TGI (HS 578T breast): > 100 µM
- TGI (HT29 colon): > 100 µM
- TGI (IGROV1 ovarian): 24.7 µM
- TGI (K-562 leukemia): > 100 µM
- TGI (KM12 colon): 34 µM
- TGI (LOX IMVI melanoma): 20.5 µM
- TGI (M14 melanoma): 19.6 µM
- TGI (MALME-3M melanoma): 38.7 µM
- TGI (MCF7 breast): > 100 µM
- TGI (MDA-MB-231 breast): > 100 µM
- TGI (MDA-MB-435): 8.3 µM
- TGI (MDA-N): > 100 µM
- TGI (MOLT-4 leukemia): > 100 µM
- TGI (NCI-H226 lung): 78.2 µM
- TGI (NCI-H23 lung): 22.3 µM
- TGI (NCI-H460 lung): > 100 µM
- TGI (NCI-H522 lung): 12.8 µM
- TGI (NCI/ADR-RES ovarian): 53.4 µM
- TGI (OVCAR-3 ovarian): 67.9 µM
- TGI (OVCAR-4 ovarian): > 100 µM
- TGI (OVCAR-5 ovarian): 51.4 µM
- TGI (PC-3 prostate): 26.5 µM
- TGI (RPMI-8226 leukemia): > 100 µM
- TGI (RXF 393 renal): 8.76 µM
- TGI (SF-268 CNS): > 100 µM
- TGI (SF-295 CNS): 71.7 µM
- TGI (SK-MEL-28 melanoma): 20.5 µM
- TGI (SK-MEL-5 melanoma): 16.1 µM
- TGI (SK-OV-3 ovarian): 17.9 µM
- TGI (SNB-19 CNS): > 100 µM
- TGI (SNB-75 CNS): > 100 µM
- TGI (SR leukemia): > 100 µM
- TGI (T-47D breast): > 100 µM
- TGI (TK-10 renal): 81.8 µM
- TGI (U251 CNS): 15.2 µM
- TGI (UACC-62 melanoma): 17.9 µM
- TGI (UO-31 renal): 29.2 µM

SMILES: O=C(O)CN1CCNCCN(CC(=O)O)CC1
- TGI (786-0 renal): > 100 µM
- TGI (A498 renal): > 68.7 µM
- TGI (A549 NSCLC): > 80 µM
- TGI (ACHN renal): > 100 µM
- TGI (BT-549 breast): > 100 µM
- TGI (CAKI-1 renal): > 100 µM
- TGI (CCRF-CEM leukemia): > 100 µM
- TGI (COLO 205 colon): 6.12 µM
- TGI (DU-145 prostate): > 100 µM
- TGI (EKVX NSCLC): > 100 µM
- TGI (HCC-2998 colon): 55.7 µM
- TGI (HCT-116 colon): > 37.3 µM
- TGI (HCT-15 colon): > 100 µM
- TGI (HL-60(TB) leukemia): > 28.6 µM
- TGI (HOP-62 NSCLC): > 100 µM
- TGI (HOP-92 NSCLC): > 100 µM
- TGI (HS 578T breast): > 100 µM
- TGI (HT29 colon): > 21.4 µM
- TGI (IGROV1 ovarian): > 100 µM
- TGI (K-562 leukemia): > 100 µM
- TGI (KM12 colon): > 100 µM
- TGI (LOX IMVI melanoma): > 100 µM
- TGI (M14 melanoma): > 100 µM
- TGI (MALME-3M melanoma): > 100 µM
- TGI (MCF7 breast): > 100 µM
- TGI (MDA-MB-231 breast): > 100 µM
- TGI (MDA-MB-435): > 100 µM
- TGI (MDA-N): > 100 µM
- TGI (MOLT-4 leukemia): > 100 µM
- TGI (NCI-H226 lung): > 42.9 µM
- TGI (NCI-H23 lung): 20.7 µM
- TGI (NCI-H460 lung): > 64.4 µM
- TGI (NCI-H522 lung): 30.7 µM
- TGI (NCI/ADR-RES ovarian): 7.3 µM
- TGI (OVCAR-3 ovarian): > 100 µM
- TGI (OVCAR-4 ovarian): > 100 µM
- TGI (OVCAR-5 ovarian): > 100 µM
- TGI (OVCAR-8 ovarian): 11.6 µM
- TGI (PC-3 prostate): > 100 µM
- TGI (RPMI-8226 leukemia): > 100 µM
- TGI (RXF 393 renal): > 100 µM
- TGI (SF-268 CNS): > 100 µM
- TGI (SF-295 CNS): > 100 µM
- TGI (SF-539 CNS): > 100 µM
- TGI (SK-MEL-2 melanoma): > 100 µM
- TGI (SK-MEL-28 melanoma): > 100 µM
- TGI (SK-MEL-5 melanoma): 39.5 µM
- TGI (SK-OV-3 ovarian): 98.4 µM
- TGI (SN12C renal): > 100 µM
- TGI (SNB-19 CNS): > 100 µM
- TGI (SNB-75 CNS): > 100 µM
- TGI (SR leukemia): > 29.4 µM
- TGI (SW-620 colon): > 100 µM
- TGI (T-47D breast): > 100 µM
- TGI (TK-10 renal): > 90.6 µM
- TGI (U251 CNS): > 100 µM
- TGI (UACC-257 melanoma): > 100 µM
- TGI (UACC-62 melanoma): > 100 µM
- TGI (UO-31 renal): > 100 µM
